Test results published in US10577395B2 (priority 2014, dated 2020).
Values after ≈ are worked out from the molar mass of the structure shown. Like-named read-outs stand apart in the source and are kept apart here.

Assays:
[1] = system: vancomycin-resistant strain of E. faecium; settings: Kahne et al., Chem. Rev. 2005; cited from earlier work
VanA VRE = assay: Antimicrobial assay, MIC for VanA VRE; format: cell-based, E. faecalis and E. faecium
Method: (§1) Assays were carried out following the methods of Clinical and Laboratory Standards Institute; Methods for Dilution Antimicrobial Susceptibility Tests for Bacteria That Grow Aerobically; Approved Standard, […].; CLSI document M07-A8; Clinical and Laboratory Standards Institute: Wayne, Pa., 2009.
(§2) This diluted bacterial stock solution was then inoculated into a well of a V-shaped 96-well glass coated microtiter plate, supplemented with serial diluted aliquots of the antibiotic solution DMSO (4 μL), to achieve a total assay volume of 0.1 mL. The plate was then incubated at 37° C. for 18 hours, after which minimal inhibitory concentrations (MICs) were determined by monitoring the cell growth (observed as a pellet) in the wells. The lowest concentration of antibiotic (in μg/mL) capable of eliminating the cell growth in the wells is reported as the MIC.

[2] = system: Enterococcus faecium (VanA VRE, ATCC BAA-2317); assay: Antimicrobial assay, MIC, VanA E. faecium; format: cell-based; settings: Enterococcus faecium
Method: as §1, §2

VSSA and MRSA = assay: Antimicrobial assay, MIC for VSSA and MRSA together; format: cell-based, S. aureus
Method: as §1, §2

[3] = system: methicillin and oxacillin-resistant Staphylococcus aureus subsp. aureus (MRSA strain ATCC 43300); assay: Antimicrobial assay, MIC, MRSA; format: cell-based; settings: Staphylococcus aureus
Method: as §1, §2

[4] = system: vancomycin-sensitive strain of E. faecium; settings: Kahne et al., Chem. Rev. 2005; cited from earlier work
[5] = system: vancomycin-sensitive Staphylococcus aureus (VSSA strain ATCC 25923); assay: Antimicrobial assay, MIC, vancomycin-sensitive S. aureus; format: cell-based; settings: Staphylococcus aureus
Method: as §1, §2

[6] = system: vancomycin-resistant Enterococcus faecalis (VanB VRE, strain ATCC 51299); assay: microbe, parasite or virus in culture; format: cell-based; settings: Enterococcus faecalis
Method: as §1, §2

[7] = system: vancomycin-resistant Enterococcus faecalis (VanA VRE, BM4166); assay: microbe, parasite or virus in culture; format: cell-based; settings: Enterococcus faecalis, VRE
Method: as §1, §2

[8] = system: vancomycin-resistant strain of E. faecium; assay: MIC reported by Kahne et al., vancomycin-resistant E. faecium; format: cell-based; settings: Kahne data
[9] = Binding of model ligand 11 (Y = NH), association constant Ka; settings: ratio of Ka for ligand 11 to ligand 12
[10] = association constant, ligand 11 (Y = NH); cited from earlier work
[11] = system: vancomycin-resistant Enterococcus faecalis (VanA VRE, BM4166); settings: E. faecalis (BM4166, VanA VRE); earlier studies; cited from earlier work
[12] = association constant, ligand 12 (Y = O); cited from earlier work

CN[C@H](CC(C)C)C(=O)N[C@H]1C(=O)N[C@@H](CC(N)=O)C(=O)N[C@H]2C(=O)NC3C(=O)N[C@H](C(=O)N[C@H](C(=O)O)c4cc(O)cc(O)c4-c4cc3ccc4O)[C@H](O)c3ccc(c(Cl)c3)Oc3cc2cc(c3OC2OC(CO)C(O)[C@H](O)[C@@H]2O[C@H]2CC(C)(NCc3ccc(-c4ccc(Cl)cc4)cc3)[C@H](O)[C@H](C)O2)Oc2ccc(cc2Cl)[C@H]1O (some centres unmarked) [Compound 4, N-4-(4′-chlorobiphenyl)methyl vancomycin, reference compound]
MIC, vancomycin-resistant strain of E. faecium [1]: 16 µg/mL | MIC (VanA VRE; Enterococcus, VRE, read-out: MIC against VanA VRE): 2.5 µg/mL (≈ 1.52 µM) | improvement in activity against VanA VRE on introduction of the (4-chlorobiphenyl)methyl group (VanA VRE; relative to the analogue without CBP group): 100 fold | MIC ([2]; read-out: MIC, Van A E. faecium, serum concentration 10%): 2.5 µg/mL (≈ 1.52 µM) | MIC ([2]; read-out: MIC, Van A E. faecium, serum concentration 25%): 5 µg/mL (≈ 3.03 µM) | MIC ([2]; read-out: MIC, Van A E. faecium, serum concentration 100%): 5 µg/mL (≈ 3.03 µM) | MIC ([2]; read-out: MIC, VanA E. faecium): 2.5 µg/mL (≈ 1.52 µM) | improvement in activity against VSSA and MRSA on introduction of the (4-chlorobiphenyl)methyl group (VSSA and MRSA; Compound 4 vs Compound 1): 20 fold | MIC (VSSA and MRSA; Staphylococcus aureus, MRSA, read-out: MIC against VSSA and MRSA): 0.03 µg/mL (≈ 0.0182 µM) | MIC ([3]; read-out: MIC, MRSA S. aureus): 0.03 µg/mL (≈ 0.0182 µM) | MIC ([3]; read-out: MIC, MRSA S. aureus, serum concentration 10%): 0.03 µg/mL (≈ 0.0182 µM) | MIC ([3]; read-out: MIC, MRSA S. aureus, serum concentration 25%): 0.06 µg/mL (≈ 0.0364 µM) | MIC ([3]; read-out: MIC, MRSA S. aureus, serum concentration 100%): 0.06 µg/mL (≈ 0.0364 µM) | MIC, vancomycin-sensitive strain of E. faecium [4]: 0.03 µg/mL | MIC ([5]; ATCC25923, read-out: MIC, sensitive S. aureus): 0.03 µg/mL (≈ 0.0182 µM) | MIC ([5]; ATCC25923, read-out: MIC, sensitive S. aureus, serum concentration 10%): 0.03 µg/mL (≈ 0.0182 µM) | MIC ([5]; ATCC25923, read-out: MIC, sensitive S. aureus, serum concentration 25%): 0.03 µg/mL (≈ 0.0182 µM) | MIC ([5]; ATCC25923, read-out: MIC, sensitive S. aureus, serum concentration 100%): 0.06 µg/mL (≈ 0.0364 µM) | MIC ([6]; read-out: MIC, Van B E. faecalis, serum concentration 10%): 0.03 µg/mL (≈ 0.0182 µM) | MIC ([6]; read-out: MIC, Van B E. faecalis, serum concentration 25%): 0.06 µg/mL (≈ 0.0364 µM) | MIC ([6]; read-out: MIC, Van B E. faecalis, serum concentration 100%): 0.06 µg/mL (≈ 0.0364 µM) | MIC ([6]; read-out: MIC, VanB E. faecalis): 0.03 µg/mL (≈ 0.0182 µM) | MIC ([7]; read-out: MIC, Van A E. faecalis, serum concentration 10%): 2.5 µg/mL (≈ 1.52 µM) | MIC ([7]; read-out: MIC, Van A E. faecalis, serum concentration 25%): 5 µg/mL (≈ 3.03 µM) | MIC ([7]; read-out: MIC, Van A E. faecalis, serum concentration 100%): 10 µg/mL (≈ 6.06 µM) | MIC ([7]; read-out: MIC, VanA E. faecalis): 2.5 µg/mL (≈ 1.52 µM) | resistant strain less sensitive than the sensitive strain [8]: about 500 times

CN[C@H](CC(C)C)C(=O)N[C@H]1C(=O)N[C@@H](CC(N)=O)C(=O)N[C@H]2C(=O)N[C@H]3C(=O)N[C@H](C(=O)N[C@H](C(=O)O)c4cc(O)cc(O)c4-c4cc3ccc4O)[C@H](O)c3ccc(c(Cl)c3)Oc3cc2cc(c3O)Oc2ccc(cc2Cl)[C@H]1O [Compound 7, vancomycin aglycon]
Ka(11/12) [9]: 1400 | ligand, Ka (M^−1), 11, Y = NH [10]: 170000 M⁻¹ | VanA MIC [11]: 640 µg/mL | ligand, Ka (M^−1), 12, Y = O [12]: 120 M⁻¹

[Ψ[CH2NH]Tpg^4]vancomycin aglycon [Compound 10]
Ka(11/12) [9]: 0.9 | ligand, Ka (M^−1), 11, Y = NH [10]: 4800 M⁻¹ | VanA MIC [11]: 31 µg/mL | ligand, Ka (M^−1), 12, Y = O [12]: 5200 M⁻¹
